Laboratory results from publication PMC9448382, “Fluorosulfate-containing pyrazole heterocycles as selective BuChE inhibitors: structure-activity relationship and biological evaluation for the treatment of Alzheimer’s disease” (Journal of Enzyme Inhibition and Medicinal Chemistry, 2022).
Where two headings read alike, the source gives them in different places.

Experiments:
in vitro = conditions: PAMPA; for Papp: pH 7.4
Text: Based on prior work[40]^,[41], a parallel artificial membrane permeation assay (PAMPA) for the blood-brain barrier (BBB) was used to determine the ability of the test chemical to penetrate into the brain. Six commercial medicines were purchased from Aladdin Reagents to validate the methodology. Energy Chemical provided the DMSO and dodecane. Avanti Polar Lipids provided the porcine brain lipid (PBL). Millipore provided the donor 96-well filter microplate with a PVDF membrane (pore size […]) and the acceptor indented 96-well microplate. Corning Inc. provided the 96-well UV plate (COSTAR). DMSO was used to dissolve commercial medications and test compounds at a concentration of 20 mg/mL. They were then diluted 200 times in a solution of PBS (pH 7.4 ± 0.1)/EtOH (70/30, v/v) to achieve a final concentration of 100 µg/mL. The donor microplate's fifilter membrane was coated with 4 µL of PBL in dodecane (20 mg/mL). The donor wells were then filled with 200 µL of diluted chemical solution and 300 µL of PBS/EtOH (70/30, v/v). To make the membrane contact with buffer solution, the donor fifilter plate was carefully positioned on top of the acceptor plate to form a “sandwich” assembly. At 25 °C, the sandwich was left undisturbed. The donor plate was carefully removed after 18 h of incubation, and the concentrations of test chemicals in the donor and acceptor wells were quantified using a UV plate spectroscopic reader (PerkinElmer VICTOR Nivo, Finland). Each sample was analysed at three wavelengths, in at least three independent experiments, in four wells.
Pe, permeability, refers to the ability of compounds to permeate the membranes through passive diffusion in the blood-brain barrier penetration assays.

AChE from electric eel = molecular target: T1, AChE from electric eel (Electrophorus electricus, UniProt O42275); experiment: EeAChE inhibition assay (Ellman's method); format: biochemical; conditions: for inhibition at 20 µM: read-out: AChE % inhibition at 20 µM, 20 µM, na = no inhibitory activity at 20 µM; for IC50: mean ± SEM; for AChE % inhibition at 20 µM: na = no inhibitory activity at 20 µM
T1 construct: AChE from electric eel (C3389-500UN; Sigma); purchased Sigma C3389-500UN
T1 sequence (O42275 24-633): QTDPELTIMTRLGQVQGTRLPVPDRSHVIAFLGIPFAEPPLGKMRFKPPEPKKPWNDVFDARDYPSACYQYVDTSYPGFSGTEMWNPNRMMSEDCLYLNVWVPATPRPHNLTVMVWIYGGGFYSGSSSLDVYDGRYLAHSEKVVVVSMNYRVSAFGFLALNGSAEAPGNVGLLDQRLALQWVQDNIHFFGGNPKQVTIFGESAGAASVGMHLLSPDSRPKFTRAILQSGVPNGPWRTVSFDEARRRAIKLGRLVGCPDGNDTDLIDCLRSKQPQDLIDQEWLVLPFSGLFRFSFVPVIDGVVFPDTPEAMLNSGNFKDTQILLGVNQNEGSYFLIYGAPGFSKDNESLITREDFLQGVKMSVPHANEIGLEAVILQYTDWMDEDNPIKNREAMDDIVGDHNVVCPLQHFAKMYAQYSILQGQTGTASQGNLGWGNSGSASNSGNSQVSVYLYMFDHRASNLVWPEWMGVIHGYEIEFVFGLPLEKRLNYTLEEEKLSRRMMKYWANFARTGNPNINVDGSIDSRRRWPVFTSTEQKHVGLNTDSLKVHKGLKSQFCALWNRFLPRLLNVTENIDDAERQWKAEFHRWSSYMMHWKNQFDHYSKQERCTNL
Method: (§1) According to Ellman's method, assays were carried out on AChE from electric eel (C3389-500UN; Sigma) and BuChE from horse serum (C4290-1KU; Sigma). On a final volume of 500 μL, the experiment was carried out in 48-well plates. EeAChE or eqBuChE, 0.036 U/mL, and 0.1 M pH 8 phosphate buffer were added to each well. At 37 °C, they were pre-incubated for 20 min at various chemical concentrations. […] Along with the enzymatic breakdown of ACh or BuCh, the DTNB creates the yellow anion 5-thio-2-nitrobenzoic acid. In a Biotek Synergy HTX Multi-Mode reader, changes in absorbance were detected at 410 nm. Inhibition curves were used to calculate the IC50 values (log inhibitor concentration vs percent of inhibition). The same conditions were used in a control experiment without the inhibitor, and the blank comprised buffer, DMSO, DTNB, and substrate.
(§2) The IC50 values were calculated by SPSS 17.0.

BuChE from horse serum = molecular target: T2, BuChE from horse serum (Equus caballus, UniProt P81908); experiment: biochemical; format: biochemical; conditions: for inhibition at 20 µM: read-out: BuChE % inhibition at 20 µM
T2 construct: BuChE from horse serum (C4290-1KU; Sigma); purchased Sigma C4290-1KU; host or cells: horse serum
T2 sequence (P81908 whole entry): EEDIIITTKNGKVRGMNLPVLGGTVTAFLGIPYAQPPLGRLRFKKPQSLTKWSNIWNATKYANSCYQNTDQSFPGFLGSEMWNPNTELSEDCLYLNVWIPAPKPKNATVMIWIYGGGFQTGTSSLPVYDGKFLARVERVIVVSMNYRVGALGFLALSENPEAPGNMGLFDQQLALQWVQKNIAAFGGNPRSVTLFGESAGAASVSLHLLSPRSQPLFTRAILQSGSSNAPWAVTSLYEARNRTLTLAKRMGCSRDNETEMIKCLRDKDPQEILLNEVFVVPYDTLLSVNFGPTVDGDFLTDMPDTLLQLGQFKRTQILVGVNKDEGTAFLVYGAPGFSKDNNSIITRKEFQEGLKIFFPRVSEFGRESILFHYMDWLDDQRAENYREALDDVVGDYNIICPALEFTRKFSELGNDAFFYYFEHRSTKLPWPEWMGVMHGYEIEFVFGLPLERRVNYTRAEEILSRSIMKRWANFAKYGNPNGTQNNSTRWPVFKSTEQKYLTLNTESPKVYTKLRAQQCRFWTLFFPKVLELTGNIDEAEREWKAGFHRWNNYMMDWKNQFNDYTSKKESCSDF
Method: as §1, §2

male ICR mice = conditions: Aβ1–42 10 µg icv, K3 10 mg/kg po, donepezil 15 mg/kg po, Day 3 to Day 14
Text: The National Institutes of Health Guide for the Care and Use of Laboratory Animals was followed for all experiments. The Animal Care and Use Committee of Anhui Medical University adopted the Measures for the Care and Treatment of Laboratory Animals. In Anhui Medical University's animal centre, male ICR mice were employed (Hefei). […] Throughout all of the experiments, the room's ambient temperature and relative humidity (50%) remained constant. […] 8‒10 animals were used in each study group. The experimental time was from 08: 00 to 14: 00, and the mice were sacrificed by cervical dislocation shortly after the experiment ended. […] Aβ1–42 aggregation was induced by dissolving the Aβ1–42 peptide in DMSO as a stock solution of 5 mM and incubating it in saline at a final concentration of 2 mg/mL for 24 h at 37 °C.

[1] = BuChE from horse serum, 20 µM, na = no inhibitory activity at 20 µM

Compound | inhibition at 20 µM (AChE from electric eel) [%] | IC50 (BuChE from horse serum) [µM] | further results
Clc1cccc(Cl)c1N=C1NCCN1 [Clonidine] | – | – | BBB penetration (in vitro): CNS+; Papp (in vitro): 8.3 ×10⁻⁶ cm/s
O=S(=O)(F)Oc1cc(-c2ccccc2)nn1-c1ccccc1 [Compound K1] | 33.6 ± 1.6 | 2.28 ± 0.64 | –
O=S(=O)(F)Oc1cc(-c2ccccc2)nn1-c1ccc(F)cc1 [Compound K2] | 27.5 ± 2.7 | 1.73 ± 0.62 | –
Cc1ccc(-n2nc(-c3ccccc3)cc2OS(=O)(=O)F)cc1 [Compound K4] | 25.9 ± 0.9 | 2.35 ± 1.02 | –
Cc1ccc(-n2nc(-c3ccccc3)cc2OS(=O)(=O)F)cc1C [Compound K5] | 24.4 ± 2.1 | 2.23 ± 0.31 | –
COc1ccc(-n2nc(-c3ccccc3)cc2OS(=O)(=O)F)cc1 [Compound K6] | 25.7 ± 1.5 | – | inhibition at 20 µM (BuChE from horse serum): 47.9 ± 1.9%
O=S(=O)(F)Oc1cc(-c2ccccc2)nn1-c1ccccn1 [Compound K7] | – | 9.89 ± 0.87 | IC50 (AChE from electric eel): 19.39 ± 0.01 µM
O=S(=O)(F)Oc1cc(-c2ccccc2)nn1C1CCCCC1 [Compound K8] | 25.1 ± 1.2 | 5.84 ± 0.87 | –
CC(C)(C)n1nc(-c2ccccc2)cc1OS(=O)(=O)F [Compound K9] | – | – | AChE % inhibition at 20 µM (AChE from electric eel): 10.1 ± 0.4%; BuChE % inhibition at 20 µM (BuChE from horse serum; [1]): 30.9 ± 1.5%
O=S(=O)(F)Oc1cc(-c2ccccc2)n[nH]1 [Compound K10] | 32 ± 1.2 | 6.92 ± 1.41 | –
Cc1nn(-c2ccccc2)c(OS(=O)(=O)F)c1C [Compound K11] | – | – | AChE % inhibition at 20 µM (AChE from electric eel): 7.2 ± 1.0%; BuChE % inhibition at 20 µM (BuChE from horse serum; [1]): 45.2 ± 1.8%
Cc1nn(-c2ccccn2)c(OS(=O)(=O)F)c1C [Compound K12] | – | – | AChE % inhibition at 20 µM (AChE from electric eel): 42.8 ± 0.8%; BuChE % inhibition at 20 µM (BuChE from horse serum; [1]): 20.7 ± 1.7%
Cc1cc(OS(=O)(=O)F)n(-c2ccccc2)n1 [Compound K13] | 37.5 ± 1.4 | 9.16 ± 0.53 | –
Cc1cc(OS(=O)(=O)F)n(-c2ccc(F)cc2)n1 [Compound K14] | 48.2 ± 1 | 5.5 ± 0.09 | –
Cc1cc(OS(=O)(=O)F)n(-c2ccc(Cl)cc2)n1 [Compound K15] | 45.2 ± 1.3 | 5.26 ± 0.39 | –
Cc1cc(OS(=O)(=O)F)n(-c2ccc(Br)cc2)n1 [Compound K16] | 37.2 ± 0.7 | 7.64 ± 0.41 | –
Cc1cccc(-n2nc(C)cc2OS(=O)(=O)F)c1 [Compound K17] | 33.4 ± 1.3 | 19.2 ± 0.69 | –

Compound | inhibition at 20 µM (AChE from electric eel) [%] | IC50 (BuChE from horse serum) [µM] | further results
Cc1cc(OS(=O)(=O)F)n(-c2ccc(C)c(C)c2)n1 [Compound K18] | 8.1 ± 0.5 | 3.31 ± 0.7 | –
Cc1cc(OS(=O)(=O)F)n(C(C)(C)C)n1 [Compound K19] | – | – | BuChE % inhibition at 20 µM (BuChE from horse serum; [1]): no activity
CC(C)c1cc(OS(=O)(=O)F)n(-c2ccccc2)n1 [Compound K20] | 41.6 ± 0.7 | 11.25 ± 0.11 | –
CC(C)c1cc(OS(=O)(=O)F)n(-c2ccc(F)cc2)n1 [Compound K21] | – | 6.9 ± 0.42 | IC50 (AChE from electric eel): 7.79 ± 0.07 µM
Cc1ccc(-n2nc(C(C)C)cc2OS(=O)(=O)F)cc1 [Compound K22] | – | 18 ± 0.34 | IC50 (AChE from electric eel): 2.6 ± 0.27 µM
Cc1ccc(-n2nc(C(C)C)cc2OS(=O)(=O)F)cc1C [Compound K23] | 21.4 ± 1.1 | 3.98 ± 0.09 | –
CCCc1cc(OS(=O)(=O)F)n(-c2ccc(Cl)cc2)n1 [Compound K24] | 41.8 ± 0.2 | 4.59 ± 0.06 | –
CCCc1cc(OS(=O)(=O)F)n(-c2ccc(OC)cc2)n1 [Compound K25] | 10.3 ± 0.6 | 3.47 ± 0.04 | –
O=S(=O)(F)Oc1cc(C2CC2)nn1-c1ccccc1 [Compound K26] | – | 14.4 ± 1.08 | IC50 (AChE from electric eel): 4.82 ± 0.07 µM
O=C1CC(c2ccccc2)=NN1c1ccccc1 [Compound M1] | 8.8 ± 2.6 | – | –
O=C1CC(c2ccccc2)=NN1c1ccc(F)cc1 [Compound M2] | 37 ± 3.3 | – | inhibition at 20 µM (BuChE from horse serum; [1]): 27.7 ± 11.7%
O=C1CC(c2ccccc2)=NN1c1ccc(Cl)cc1 [Compound M3] | 26.9 ± 1 | – | inhibition at 20 µM (BuChE from horse serum; [1]): 25.4 ± 5.4%
Cc1ccc(N2N=C(c3ccccc3)CC2=O)cc1C [Compound M4] | 10.7 ± 1.9 | – | inhibition at 20 µM (BuChE from horse serum; [1]): 44.1 ± 13.8%
COc1cc2c(cc1OC)C(=O)C(CC1CCN(Cc3ccccc3)CC1)C2 (stereo not shown) [Donepezil, reference compound] | – | – | effect on Aβ1–42-induced cognitive dysfunction (MWM) (male ICR mice): significantly improved
CN1C(C(=O)Nc2ccccn2)=C(O)c2ccccc2S1(=O)=O [Piroxicam] | – | – | Papp (in vitro): 2.23 ×10⁻⁶ cm/s
CC(=O)[C@H]1CC[C@H]2[C@@H]3CCC4=CC(=O)CC[C@]4(C)[C@H]3CC[C@]12C [Progesterone] | – | – | Papp (in vitro): 8.1 ×10⁻⁶ cm/s
